# Experimental data published in patent US20190125896A1, “ANTI-INFECTIVE COMPOSITIONS COMPRISING PHYTOGLYCOGEN NANOPARTICLES” (MIREXUS BIOTECHNOLOGIES INC., priority 2016, published 2019).
# Where two headings read alike, the source gives them in different places.
# How the values were obtained:
# B. subtilis 168 = test: Sensitization to antibiotics: MIC in medium supplemented with phytoglycogen; type: cell-based; details: Bacillus subtilis; for fold-change reduction in MIC, CP0.125: cationized phytoglycogen at 0.125 of its MIC; for fold-change reduction in MIC, CP0.25: cationized phytoglycogen at 0.25 of its MIC; for fold-change reduction in MIC, CP0.5: cationized phytoglycogen at half-strength of its MIC
# P. aeruginosa PAO1 = test: as above; type: cell-based, Pseudomonas aeruginosa; details: for ↓ Fold-change in MIC (cationized phytoglycogen) MIC.5 mg/ml: 0.5 mg cationized phytoglycogen · ml^−1 Mueller-Hinton Broth; for ↓ Fold-change in MIC (cationized phytoglycogen) MIC1 mg/ml: 1 mg cationized phytoglycogen · ml^−1 Mueller-Hinton Broth; for ↓ Fold-change in MIC (cationized phytoglycogen) MIC10 mg/ml: 10 mg cationized phytoglycogen · ml^−1 Mueller-Hinton Broth
# Method: MIC assays as defined in Example 15 were performed in sterile and untreated 96 well microtitre plates according to the broth micro-dilution technique described in either the Clinical and Laboratory Standards Institute document M07-A9: Methods for Dilution Antimicrobial Susceptibility Tests for Bacteria that Grow Aerobically; Approved Standard and document M27-A2 Reference Method for Broth Dilution Antifungal Susceptibility Testing of Yeasts; Approved Standard—Second Edition, with the exception that, where indicated, medium was additionally supplemented with native or cationized phytoglycogen. Assessments done using C. utilis ATCC9950, B. subtilis 168 and E. coli AB264 employed native or cationized phytoglycogen at concentrations ⅛, ¼, ½ their respective MIC values for cationized phytoglycogen. Assessments of the opportunistic pathogen P. aeruginosa PAO1 were made at final in-assay concentrations of 0.5, 1 or 10 mg native or cationized phytoglycogen.ml^−1. Experiments were performed as in-assay duplicates, and were repeated a minimum of three times (n=6).
# MIC assays were performed in duplicate within each experiment and were repeated a minimum three times to confirm the data (n=6). MIC values with a four-fold or greater change relative to the non-supplemented medium MIC represent a statistically-significant change in MIC value. Only those antibiotic-cationized phytoglycogen combinations which caused a four-fold change relative to the non-supplemented medium MIC were deemed as indicative of resulting in potentiation (MIC value was less), or tolerance (MIC value increased).
# E. coli AB264 = test: as above; type: cell-based; details: Escherichia coli; for fold-change reduction in MIC, CP0.125: cationized phytoglycogen at 0.125 of its MIC; for fold-change reduction in MIC, CP0.25: cationized phytoglycogen at 0.25 of its MIC; for fold-change reduction in MIC, CP0.5: cationized phytoglycogen at half-strength of its MIC
# [1] = test system: P. aeruginosa PAO1 biofilm; test: Biofilm eradication: 20 h biofilms treated with antibiotic and cationized phytoglycogen; type: cell-based, Pseudomonas aeruginosa; details: 24 h, medium alone
# Method: Biofilm growth and treatments were performed in sterile 96 well polystyrene plates. Sterile solutions of gamma-irradiated cationized phytoglycogen was prepared by reconstitution and dilution as required in sterile Mueller-Hinton broth. P. aeruginosa PAO1 stocks were revived by sub-culturing P. aeruginosa PAO1 (37° C., 150 rpm, 16-18 h) in Mueller-Hinton broth (Oxoid; Fisher Scientific, Canada). The inoculum was prepared immediately prior to use by diluting in sterile Mueller-Hinton broth to a final in-assay cell density of 5×10^5 CFU.ml^−1. 100 μl of this solution was transferred to wells and incubated (37° C., 150 rpm). Sterile broth was the negative growth control. At 20 h, plates were transferred to a biological safety cabinet, well contents were gently aspirated and the wells rinsed with sterile 0.9% (wt/vol) NaCl. […] Positive growth controls contained inoculated medium, non-supplemented or with 1 or 10 mg cationized phytoglycogen.ml^−1. Plates were incubated at 37° C. for a further 24 h, after which biofilms were quantitated as previously described. Experiments were done in quadruplicate replicate and repeated three times (n=12).
# [2] = Pseudomonas aeruginosa, PAO1, P. aeruginosa, non-supplemented Mueller-Hinton Broth, read-out: MIC
# [3] = P. aeruginosa, non-supplemented Mueller-Hinton Broth
Compound,"fold-change reduction in MIC, CP0.125 (B. subtilis 168)","fold-change reduction in MIC, CP0.25 (B. subtilis 168)","fold-change reduction in MIC, CP0.5 (B. subtilis 168)",↓ Fold-change in MIC (cationized phytoglycogen) MIC.5 mg/ml (P. aeruginosa PAO1; P. aeruginosa),↓ Fold-change in MIC (cationized phytoglycogen) MIC1 mg/ml (P. aeruginosa PAO1; P. aeruginosa),↓ Fold-change in MIC (cationized phytoglycogen) MIC10 mg/ml (P. aeruginosa PAO1; P. aeruginosa),MIC (P. aeruginosa PAO1; [2]),"fold-change reduction in MIC, CP0.125 (E. coli AB264)","fold-change reduction in MIC, CP0.25 (E. coli AB264)","fold-change reduction in MIC, CP0.5 (E. coli AB264)",change in biofilm of 20 h biofilms ([1]; at the MIC),reduction of biofilm ([1]; four-fold the MIC),reduction of biofilm ([1]; two-fold the MIC),MIC (P. aeruginosa PAO1; [3]),"MIC (P. aeruginosa PAO1; Pseudomonas aeruginosa, PAO1, read-out: MIC (μg · ml^−1))"
CC1(C)S[C@@H]2[C@H](NC(=O)[C@H](N)c3ccccc3)C(=O)N2[C@H]1C(=O)O [ampicillin],1 fold,1 fold,2 fold,↓ 8 fold,↓ 8-16 fold,2 fold,1020 µg/mL,1-2 fold,1-2 fold,1-2 fold,–,–,–,–,–
CC1(C)S[C@@H]2[C@H](NC(=O)C(C(=O)O)c3ccccc3)C(=O)N2[C@H]1C(=O)O (some centres unmarked) [carbenicillin],1 fold,2 fold,↓4-8 fold,↓ 16-32 fold,↓ 32 fold,↓ 8-16 fold,64 µg/mL,1-2 fold,↓4-8 ^ fold,↓8-16^ fold,–,–,–,–,–
CC(C)(O/N=C(\C(=O)N[C@@H]1C(=O)N2C(C(=O)[O-])=C(C[n+]3ccccc3)CS[C@H]12)c1csc(N)n1)C(=O)O [ceftazidime],–,–,–,↓ 8 fold,↓ 32-64 fold,↓ 4-8 fold,2 µg/mL,–,–,–,–,–,–,–,–
O=C(N[C@H](CO)[C@H](O)c1ccc([N+](=O)[O-])cc1)C(Cl)Cl [chloramphenicol],1 fold,↓2-4 fold,–,↓ 4 fold,↓ 8 fold,2 fold,64 µg/mL,1-2 fold,1-2 fold,1-2 fold,–,–,–,–,–
O=C(O)c1cn(C2CC2)c2cc(N3CCNCC3)c(F)cc2c1=O [ciprofloxacin],–,–,–,–,–,–,–,–,–,–,no change in biofilm,73%,64%,–,–
CC[C@H]1OC(=O)[C@H](C)[C@@H](O[C@H]2C[C@@](C)(OC)[C@@H](O)[C@H](C)O2)[C@H](C)[C@@H](O[C@@H]2O[C@H](C)C[C@H](N(C)C)[C@H]2O)[C@](C)(O)C[C@@H](C)C(=O)[C@H](C)[C@@H](O)[C@]1(C)O [erythromycin],1-2 fold,↓2-4 fold,↓2-4 fold,↓ 4 fold,↓ 8 fold,1-2 fold,128 µg/mL,1-2 fold,1-2 fold,1-2 fold,–,–,–,–,–
CCn1cc(C(=O)O)c(=O)c2ccc(C)nc21 [nalidixic acid],–,–,–,↓ 4-32 fold,↓ 16-32 fold,↓ 8-16 fold,1020 µg/mL,–,–,–,–,–,–,–,–
CO[C@@H]1[C@@H](OC(N)=O)[C@@H](O)[C@H](Oc2ccc3c(O)c(NC(=O)c4ccc(O)c(CC=C(C)C)c4)c(=O)oc3c2C)OC1(C)C [novobiocin],–,–,–,↓ 4-16 fold,↓ 16-32 fold,↓ 4 fold,2050 µg/mL,–,–,–,–,–,–,–,–
CC1(C)S[C@@H]2[C@H](NC(=O)Cc3ccccc3)C(=O)N2[C@H]1C(=O)O [penicillin G],1-2 fold,↓8-16 fold,↓16-32 fold,↓ 16-32 fold,↓64-128 fold,↓ 2-4 fold,–,1-2 fold,↓4-8 ^ fold,↓8 fold,–,–,–,12500 µg/mL,–
CN(C)[C@@H]1C(O)=C(C(N)=O)C(=O)[C@@]2(O)C(O)=C3C(=O)c4c(O)cccc4[C@@](C)(O)[C@H]3C[C@@H]12 [tetracycline],–,–,–,↓ 8 fold,↓ 8 fold,2 fold,16 to 32 µg/mL,–,–,–,–,–,–,–,–
CN[C@H](CC(C)C)C(=O)N[C@H]1C(=O)N[C@@H](CC(N)=O)C(=O)N[C@H]2C(=O)N[C@H]3C(=O)N[C@H](C(=O)N[C@H](C(=O)O)c4cc(O)cc(O)c4-c4cc3ccc4O)[C@H](O)c3ccc(c(Cl)c3)Oc3cc2cc(c3O[C@@H]2O[C@H](CO)[C@@H](O)[C@H](O)[C@H]2O[C@H]2C[C@](C)(N)[C@H](O)[C@H](C)O2)Oc2ccc(cc2Cl)[C@H]1O [vancomycin],1 fold,1 fold,1-2 fold,↓ 2-4 fold,↓ 16 fold,↓ 4 fold,–,1-2 fold,↓2-4 ^ fold,↓4-16^ fold,–,–,–,–,1020 µg/mL
gentamicin,1-2 fold,↓2-4 fold,↓4-8 fold,2 fold,2 fold,1 fold,–,1-2 fold,2 fold,↓4-8 ^ fold,–,–,–,0.5 µg/mL,–
polymyxin B [polymixin B],–,–,–,1-2 fold,↓ 2-4 fold,2 fold,–,–,–,–,–,–,–,0.125 to 0.25 µg/mL,–
